For one assay, the system named is pro MMP-9 protein. Kind of assay: Inhibitory activity against proMMP-9 protein production (TNF α-stimulated mouse peritoneal exudate cells, ELISA). It is filed as cell-based, C57BL/6J mice. The settings on record: relative activity when the value of Comparative Agent 1 (IC50 = 10.04 ± 4.11 μM) is 10, on the increase of pro MMP-9 by TNF α 25 ng/ml, 24 hours, read-out: IC50 (μM)*. An outline of the steps:
(§1)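 Peritoneal exudate cells came from male C57BL/6J mice 3 days after i.p. zymosan A; cultured cells got compound (0.02–20 μM final) 1 h before TNFα (25 ng/ml) and supernatant pro MMP-9 was measured by ELISA after 24 h for IC50 against the TNFα-induced increase. MIC was measured against S. aureus ATCC29213.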
(In an ELISA, binding on a coated surface is turned into a signal by an enzyme label.)

For assay [1], the system named is Staphylococcus aureus ATCC29213. Kind of assay: Minimal inhibitory concentration (MIC). In kind it is cell-based. An outline of the steps: as §1

Values after ≈ are worked out from the molar mass of the structure shown.

As a reminder, the IC50 is the concentration that inhibits the measured activity by half. The MIC is the least concentration at which growth counts as inhibited. High values mean a less susceptible organism, low ones a more susceptible organism. As for `CC[C@H]1OC(=O)[C@H](C)[C@@H](O[C@H]2C[C@@](C)(OC)[C@@H](O)[C@H](C)O2)[C@H](C)[C@@H](O[C@@H]2O[C@H](C)C[C@@H](N(C)CCCO)[C@@H]2N(C)C)[C@@](C)(OC)C[C@@H](C)C(=O)[C@H](C)[C@@H](O)[C@]1(C)O` [Example 199, 3′-N-demethyl-2′-deoxy-2′-dimethylamino-3′-N-(3-hydroxypropyl)-6-O-methylerythromycin A], in the assay with pro MMP-9 protein, the IC50 is 3.6 µM. Besides, the MIC in assay [1] was above 128 µg/mL.

Turning to `CC[C@H]1OC(=O)[C@H](C)[C@@H](O[C@H]2C[C@@](C)(OC)[C@@H](O)[C@H](C)O2)[C@H](C)[C@@H](O[C@@H]2O[C@H](C)C[C@@H](N3CC[C@H](O)C3)[C@@H]2N(C)C)[C@@](C)(OC)C[C@@H](C)C(=O)[C@H](C)[C@@H](O)[C@]1(C)O` [Example 201, 3′-dedimethylamino-2′-deoxy-2′-dimethylamino-3′-((S)-3-hydroxypyrrolidin-1-yl)-6-O-methylerythromycin A], in the assay on pro MMP-9 protein, the 50% inhibitory concentration (IC50) is 4.45 µM. Further, the MIC in assay [1] was above 128 µg/mL.

In the case of `CC[C@H]1OC(=O)[C@H](C)[C@@H](OC(C)=O)[C@H](C)[C@@H](O[C@@H]2O[C@H](C)C[C@@H](N3CCOCC3)[C@@H]2N(C)C)[C@@](C)(OC)C[C@@H](C)C(=O)[C@H](C)[C@@H](O)[C@]1(C)O` [Example 203, 3-O-acetyl-5-O— (3′-dedimethylamino-2′-deoxy-2′-dimethylamino-3′-(4-morpholino)desosaminyl)-6-O-methylerythronolide A], in the assay with pro MMP-9 protein, the IC50 was determined as 5.03 µM. In assay [1], this compound showed an MIC above 128 µg/mL.

As for `CC[C@H]1OC(=O)[C@H](C)[C@@H](O[C@H]2C[C@@](C)(OC)[C@@H](OC(C)=O)[C@H](C)O2)[C@H](C)[C@@H](O[C@@H]2O[C@H](C)C[C@@H](N3CCOCC3)[C@@H]2N(C)C)[C@@](C)(OC)C[C@@H](C)C(=O)[C@H](C)[C@@H](O)[C@H]1C` [Example 209, 4″-O-acetyl-3′-dedimethylamino-2′-deoxy-2′-dimethylamino-3′-(4-morpholino)-6-O-methylerythromycin B], the IC50 in the assay on pro MMP-9 protein stood at 3.47 µM. Moreover, the MIC in assay [1] was above 128 µg/mL.

Take `CC[C@H]1OC(=O)[C@H](C)[C@@H](O[C@H]2C[C@@](C)(OC)[C@@H](O)[C@H](C)O2)[C@H](C)[C@@H](O[C@@H]2O[C@H](C)C[C@@H](N3CCOCC3)[C@@H]2N(C)C)[C@@](C)(OC)C[C@@H](C)C(=O)[C@H](C)[C@@H](O)[C@H]1C` [Example 210, 3′-dedimethylamino-2′-deoxy-2′-dimethylamino-3′-(4-morpholino)-6-O-methylerythromycin B]: the IC50 in the assay on pro MMP-9 protein stood at 4.63 µM. The same compound yielded an MIC in assay [1] of 128 µg/mL (≈ 160 µM).

`CC[C@H]1OC(=O)[C@H](C)C(=O)[C@H](C)[C@@H](O[C@@H]2O[C@H](C)C[C@@H](N3CCOCC3)[C@@H]2N(C)C)[C@@](C)(OC)C[C@@H](C)C(=O)[C@H](C)[C@H]2N(CCCCn3cnc(-c4cccnc4)c3)C(=O)O[C@]12C` [Example 211, 3,11-dideoxy-5-O-(3′-dedimethylamino-2′-deoxy-2′-dimethylamino-3′-(4-morpholino)desosaminyl)-11-{4-[4-(pyridin-3-yl)-1H-imidazol-1-yl]butyl}-amino-3-oxo-6-O-methylerythronolide A 11,12-cyclic carbamate]: the IC50 in the assay with pro MMP-9 protein was 2.58 µM. Besides, the MIC in assay [1] was above 128 µg/mL.

Take `CC[C@H]1OC(=O)[C@H](C)[C@@H](O[C@H]2C[C@@](C)(OC)[C@@H](OC(C)=O)[C@H](C)O2)[C@H](C)[C@@H](O[C@@H]2O[C@H](C)C[C@@H](N3CCOCC3)[C@@H]2N(C)C)[C@@](C)(OC(C)=O)C[C@@H](C)CN(C)[C@H](C)[C@@H](OC(C)=O)[C@]1(C)O` [Example 212, 6,11,4″-O-triacetyl-3′-dedimethylamino-2′-deoxy-2′-dimethylamino-3′-(4-morpholino)-9-deoxo-9a-aza-9a-methyl-9a-homoerythromycin A]: the IC50 in the assay with pro MMP-9 protein stood at 1.78 µM. Also, the MIC in assay [1] was above 128 µg/mL.

For the origin of these results see patent publication US8124744B2, “Macrolide derivatives” (Taisho Pharmaceutical Co., Ltd., priority 2006, dated 2012).
